Patent US5582986A, “Antisense oligonucleotide inhibition of the ras gene” (Isis Pharmaceuticals, Inc., priority 1994, dated 1996)

Tests used:
[1] = test system: normal (wild-type) H-ras-luciferase reporter gene in HeLa cells; test: ras-luciferase reporter gene expression, normal (wild-type) form, transient transfection; type: cell-based, human; conditions: dose-response, luciferase activity as % of untreated transfected cells, read-out: IC50, inhibition of ras-luciferase activity, normal form
[2] = test system: mutant (activated, codon-12) H-ras-luciferase reporter gene in HeLa cells; test: ras-luciferase reporter gene expression, mutant (codon-12, activated) form, transient transfection; type: cell-based, human

## 2570: phosphorothioate 17-mer CCA-CAC-CGA-CGG-CGC-CC, targeted to the codon-12 point mutation of activated H-ras RNA (antisense CCACACCGACGGCGCCC; all phosphorothioate, sugars by position and methylation of C not given here) [Oligo 2570]
[1]
  IC50: ~250 nM
[2]; at low concentrations, dose-response (FIG. 2)
  selectivity toward the mutant form of ras-luciferase as compared to the normal form: approximately threefold
[2]; dose-response, HeLa cells, luciferase activity as % of untreated transfected cells, read-out: IC50, inhibition of ras-luciferase activity, mutant form
  IC50: ~100 nM
[2]; single dose 100 nM, HeLa cells, cationic lipid (FIG. 6)
  inhibition of mutant ras-luciferase relative to wild-type: four-fold
[2]; single dose 0.5 μM (FIG. 3, FIG. 4)
  selectivity toward the mutated form of ras-luciferase as compared to the normal form (in words): displayed selectivity toward the mutated form
